In ChEMBL document CHEMBL1201862, “PubChem BioAssay data set” (2004):
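Following 48 hours of exposure in 96-well plates, responses at five concentrations were used to interpolate endpoints linearly. GI50 = concentration required for 50% inhibition of growth.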 Activity calls are given as the source filed them. No stated cut-off is given here; in the data, active = GI50 up to about 1.1 µM and inactive = higher.

Legend:
Experiment in all cases: NCI-60 cell line screen, 48 h
MDA-MB-231 = system: MDA-MB-231
KM12 = system: KM12
OVCAR-8 = system: OVCAR-8
PC-3 = system: PC-3
SK-OV-3 = system: SK-OV-3
Hs-578T = system: Hs-578T
SN12C = system: SN12C
ACHN = system: ACHN
UACC-62 = system: UACC-62
SK-MEL-28 = system: SK-MEL-28
MDA-MB-435 = system: MDA-MB-435
SR = system: SR
M14 = system: M14
CCRF-CEM = system: CCRF-CEM
OVCAR-5 = system: OVCAR-5
MCF7 = system: MCF7
HCC 2998 = system: HCC 2998
NCI/ADR-RES = system: NCI/ADR-RES
RXF 393 = system: RXF 393
HOP-92 = system: HOP-92

| SMILES | GI50 (MDA-MB-231) | GI50 (KM12) | GI50 (OVCAR-8) | GI50 (PC-3) | GI50 (SK-OV-3) | GI50 (Hs-578T) | GI50 (SN12C) | GI50 (ACHN) | GI50 (UACC-62) | GI50 (SK-MEL-28) | GI50 (MDA-MB-435) | GI50 (SR) | GI50 (M14) | GI50 (CCRF-CEM) | GI50 (OVCAR-5) | GI50 (MCF7) | GI50 (HCC 2998) | GI50 (NCI/ADR-RES) | GI50 (RXF 393) | GI50 (HOP-92) |
| --- | --- | --- | --- | --- | --- | --- | --- | --- | --- | --- | --- | --- | --- | --- | --- | --- | --- | --- | --- | --- |
| Cn1c(=O)c2c(nc3n2CCCC(=O)N3CCCCl)n(C)c1=O | > 100 µM (inactive) | > 100 µM (inactive) | > 100 µM (inactive) | > 100 µM (inactive) | > 100 µM (inactive) | > 100 µM (inactive) | > 100 µM (inactive) | > 100 µM (inactive) | > 100 µM (inactive) | > 100 µM (inactive) | > 100 µM (inactive) | > 100 µM (inactive) | > 100 µM (inactive) | > 100 µM (inactive) | > 100 µM (inactive) | > 100 µM (inactive) | > 100 µM (inactive) | > 100 µM (inactive) | > 100 µM (inactive) | > 100 µM (inactive) |
| COc1c(O)cc2c(c1O)C(=O)/C(=C/c1ccc(O)cc1)CO2 | 40.2 µM (inactive) | 13.6 µM (inactive) | 17.9 µM (inactive) | 43 µM (inactive) | 24.7 µM (inactive) | 30.2 µM (inactive) | 23 µM (inactive) | 19.8 µM (inactive) | 19.2 µM (inactive) | 17.7 µM (inactive) | 33.6 µM (inactive) | 13.5 µM (inactive) | 28.1 µM (inactive) | 18.1 µM (inactive) | 29 µM (inactive) | 34.7 µM (inactive) |  | 22.9 µM (inactive) | 33.7 µM (inactive) | 36.1 µM (inactive) |
| Cc1ccc2nc(SCC(=O)N/N=C3\C(=O)Nc4ccccc43)n(-c3ccccc3)c(=O)c2c1 | 10.9 µM (inactive) | 13.6 µM (inactive) |  | 17.1 µM (inactive) | 13.8 µM (inactive) | 17.8 µM (inactive) | 15.7 µM (inactive) | 13.8 µM (inactive) | 16.9 µM (inactive) | 15.4 µM (inactive) | 16.5 µM (inactive) | 19.5 µM (inactive) | 16.3 µM (inactive) | 18.4 µM (inactive) | 15.8 µM (inactive) | 16.1 µM (inactive) | 14.8 µM (inactive) | 13.3 µM (inactive) | 14.1 µM (inactive) | 14.3 µM (inactive) |
| NC(=O)N/N=C1/CCC(O)CC1CC(=O)O (centres undefined) | > 100 µM (inactive) | > 100 µM (inactive) | > 100 µM (inactive) | > 100 µM (inactive) | > 100 µM (inactive) | > 100 µM (inactive) | > 100 µM (inactive) | > 100 µM (inactive) | > 100 µM (inactive) | > 100 µM (inactive) | > 100 µM (inactive) | 30.3 µM (inactive) | > 100 µM (inactive) | 36.3 µM (inactive) | > 100 µM (inactive) | > 100 µM (inactive) |  | > 100 µM (inactive) | > 100 µM (inactive) | > 100 µM (inactive) |
| Cc1ccc(C2=Nn3c(nc4sc(-c5ccccc5)cc4c3=O)SC2)cc1 | > 100 µM (inactive) | > 100 µM (inactive) | > 100 µM (inactive) | > 100 µM (inactive) | > 100 µM (inactive) | > 100 µM (inactive) | > 100 µM (inactive) | > 100 µM (inactive) | > 100 µM (inactive) | > 100 µM (inactive) | > 100 µM (inactive) | > 100 µM (inactive) |  | > 100 µM (inactive) | > 100 µM (inactive) | > 100 µM (inactive) | > 100 µM (inactive) | > 100 µM (inactive) | > 10 µM (inactive) | > 100 µM (inactive) |
| CCOC(=O)c1cc2c([nH]1)c(O)cc1c2ccn1Cc1ccccc1 | 23.5 µM (inactive) | 10.3 µM (inactive) | 17.2 µM (inactive) | 16.1 µM (inactive) | 20.7 µM (inactive) | 19.4 µM (inactive) | 20.2 µM (inactive) |  | 15.5 µM (inactive) | 17.5 µM (inactive) | 16.9 µM (inactive) | 1.03 µM (active) | 23.6 µM (inactive) | 10.8 µM (inactive) | 17.7 µM (inactive) | 12.5 µM (inactive) | 19 µM (inactive) | 17.3 µM (inactive) | 7.8 µM (inactive) | 13.5 µM (inactive) |
| CCCCN1C(=O)CS/C1=N/Nc1nc2c([nH]1)c(=O)n(C)c(=O)n2C | 29 µM (inactive) | 6.35 µM (inactive) |  | > 100 µM (inactive) | 6.47 µM (inactive) | 45.4 µM (inactive) | 33.6 µM (inactive) | > 100 µM (inactive) | 86.5 µM (inactive) | 20 µM (inactive) | 14.7 µM (inactive) | 11.9 µM (inactive) | 28.5 µM (inactive) | 22.2 µM (inactive) | 14.5 µM (inactive) | 13.7 µM (inactive) | > 100 µM (inactive) | > 100 µM (inactive) | > 100 µM (inactive) | 43.1 µM (inactive) |
| O=c1[nH]c2ccsc2c(=O)n1COCc1ccccc1 | > 100 µM (inactive) | > 100 µM (inactive) | > 100 µM (inactive) | > 100 µM (inactive) |  | > 100 µM (inactive) | > 100 µM (inactive) | > 100 µM (inactive) |  | > 100 µM (inactive) | > 100 µM (inactive) | > 100 µM (inactive) | > 100 µM (inactive) | > 100 µM (inactive) | > 100 µM (inactive) | > 100 µM (inactive) | > 100 µM (inactive) | > 100 µM (inactive) | > 100 µM (inactive) | 79.8 µM (inactive) |
| CNC(=O)OC(COC)CN1CCN(c2ccccc2C)CC1 (centres undefined) | > 10 µM (inactive) | > 10 µM (inactive) | > 10 µM (inactive) | > 10 µM (inactive) | > 10 µM (inactive) | > 10 µM (inactive) | > 10 µM (inactive) | > 10 µM (inactive) | > 10 µM (inactive) | > 10 µM (inactive) | > 10 µM (inactive) | > 10 µM (inactive) | > 10 µM (inactive) | > 10 µM (inactive) |  | > 10 µM (inactive) | > 10 µM (inactive) | > 10 µM (inactive) | > 10 µM (inactive) | > 10 µM (inactive) |
| CCOC(=O)c1nc2ccccc2nc1Oc1ccc(OC)cc1 | > 100 µM (inactive) | > 100 µM (inactive) | > 100 µM (inactive) | > 100 µM (inactive) | > 100 µM (inactive) | > 100 µM (inactive) | > 100 µM (inactive) | > 100 µM (inactive) | > 100 µM (inactive) | > 100 µM (inactive) | > 100 µM (inactive) | > 100 µM (inactive) | > 100 µM (inactive) | > 100 µM (inactive) | > 100 µM (inactive) | > 100 µM (inactive) |  | > 100 µM (inactive) | > 100 µM (inactive) | > 100 µM (inactive) |
| CC1=CC(=O)/C(=C/NC(=S)c2ccncc2)C(=O)O1 | > 100 µM (inactive) | > 100 µM (inactive) | > 100 µM (inactive) | > 100 µM (inactive) | > 100 µM (inactive) | > 100 µM (inactive) | > 100 µM (inactive) | > 100 µM (inactive) | > 100 µM (inactive) | > 100 µM (inactive) | > 100 µM (inactive) | > 100 µM (inactive) | > 100 µM (inactive) | > 100 µM (inactive) | > 100 µM (inactive) | > 100 µM (inactive) | > 100 µM (inactive) | > 100 µM (inactive) | > 100 µM (inactive) | > 100 µM (inactive) |
| C/C(=C\COc1ccc2ccc(=O)oc2c1)CCC(=O)C(C)(C)O | 44 µM (inactive) | 18.5 µM (inactive) | 23.3 µM (inactive) | 53.5 µM (inactive) | 36 µM (inactive) | 26.4 µM (inactive) | 24.2 µM (inactive) | 31.3 µM (inactive) | 18.3 µM (inactive) | 39.9 µM (inactive) | 21.4 µM (inactive) | 15.3 µM (inactive) | 22 µM (inactive) | 16.4 µM (inactive) | 40.8 µM (inactive) | 19.1 µM (inactive) | 19.9 µM (inactive) | 27.9 µM (inactive) | 14.4 µM (inactive) | 26.4 µM (inactive) |
| COC(=O)C1Cc2c(OC)ccc(OC)c2C(O)C1C(=O)OC (centres undefined) | > 100 µM (inactive) | > 100 µM (inactive) | > 100 µM (inactive) | > 100 µM (inactive) |  | > 100 µM (inactive) | > 100 µM (inactive) | > 100 µM (inactive) | > 100 µM (inactive) | > 100 µM (inactive) | > 100 µM (inactive) | > 100 µM (inactive) | > 100 µM (inactive) | > 100 µM (inactive) | > 100 µM (inactive) | > 100 µM (inactive) |  | > 100 µM (inactive) | > 100 µM (inactive) | > 100 µM (inactive) |
| COc1ccc(CC2COc3cc(OC)cc(OC)c3C2=O)cc1 (centres undefined) | 33.3 µM (inactive) | 8.81 µM (inactive) | 26.1 µM (inactive) | 22.5 µM (inactive) | 19.8 µM (inactive) | 17.5 µM (inactive) | 38.9 µM (inactive) | 46.8 µM (inactive) | 32.8 µM (inactive) | 20.7 µM (inactive) | 3.18 µM (inactive) | 4.57 µM (inactive) | 16.4 µM (inactive) |  | 24.7 µM (inactive) | 36 µM (inactive) |  | 8.34 µM (inactive) | 26.8 µM (inactive) | 25.9 µM (inactive) |
| CS(=O)(=O)N1CC(CCl)c2ccc(O)cc21 (centres undefined) | 2.2 µM (inactive) | 2.46 µM (inactive) | 2.08 µM (inactive) | 2.17 µM (inactive) |  | 4.32 µM (inactive) | 2.91 µM (inactive) | 3.4 µM (inactive) | 4.17 µM (inactive) | 3.4 µM (inactive) | 1.89 µM (inactive) | 2.84 µM (inactive) |  | 1.58 µM (inactive) | 3.63 µM (inactive) | 1.98 µM (inactive) | 1.95 µM (inactive) | 2.56 µM (inactive) | 1.4 µM (inactive) | 3.11 µM (inactive) |
